Consider 54 molecules from US20260125359A1, “HETEROARYL COMPOUNDS AS MULTI-TARGET PROTEIN KINASE INHIBITORS” (FUJIAN HAIXI PHARMACEUTICALS CO., LTD., priority 2023, published 2026).

Each structure is given as a SMILES string.

This experiment concerns M-NFS-60 cells. In words: M-NFS-60 cell in vitro assay (CCK, 48 h, M-CSF factor medium). The class given is cell-based. The conditions noted are these: M-NFS-60 cells; read-out: M-NFS-60cellassay IC50. The method in brief:
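IC50 values were fitted from CCK absorbance (450 nm, 2 h development) after 48 h compound treatment. Cells: M-NFS-60, seeded 2000/well and rested 4 h, grown in medium carrying 25 ng/ml M-CSF factor plus 10% serum; compounds serially diluted in DMSO.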
Broadly, the IC50 is the concentration at which inhibition is half-maximal. For the molecule `Cn1ncc2ncc(O[C@H]3CCc4c(NC(=O)c5cccc(C6CC6)c5)ccc(F)c43)cc21` [Compound 78a], the IC50 was under 50 nM.
In the case of `Cc1ccc(NC(=O)c2cccc(C3CC3)c2)c2c1[C@@H](Oc1cnc3cnn(C)c3c1)CC2` [Compound 78b] it was over 500 nM; in that of `Cc1cccc(NC(=O)c2cccc3c2CC[C@@H]3N(C)c2cnc3cnn(C)c3c2)c1F` [Compound 79, (S)—N-(2-fluoro-3-methylphenyl)-1-(methyl (1-methyl-1H-pyrazolo[4,3-b]pyridin-6-yl)amino)-2,3-dihydro-1H-indene-4-carboxamide], under 50 nM; in that of `CN(c1cnc2cnn(C)c2c1)[C@H]1CCc2c(C(=O)Nc3cccc(C4CC4)c3)cccc21` [Compound 80a], under 50 nM.
For the molecule `CN(c1cnc2cn(C)nc2c1)[C@H]1CCc2c(C(=O)Nc3cccc(C4CC4)c3)cccc21` [Compound 80b], the IC50 was under 50 nM.
In the case of `CN(C)Cc1ccc(NC(=O)c2cccc3c2CC[C@@H]3N(C)c2cnc3cnn(C)c3c2)cc1F` [Compound 80c] it was 50 to 200 nM.
The figure for `COc1cc(NC(=O)c2cccc3c2CC[C@@H]3N(C)c2cnc3cnn(C)c3c2)ccc1F` [Compound 80d] is under 50 nM; for `CN(c1cnc2cnn(C)c2c1)[C@H]1CCc2c(C(=O)Nc3cncc(Cl)c3)cccc21` [Compound 80e, (S)—N-(5-chloropyridin-3-yl)-1-(methyl (1-methyl-1H-pyrazolo[4,3-b]pyridin-6-yl)amino)-2,3-dihydro-1H-indene-4-carboxamide] it is under 50 nM; for `CN(C)Cc1cc(NC(=O)c2cccc3c2CC[C@@H]3N(C)c2cnc3cnn(C)c3c2)ccc1F` [Compound 80f] it is 50 to 200 nM.
In the case of `CN(C)Cc1ccc(NC(=O)c2cccc3c2CC[C@@H]3N(C)c2cnc3cnn(C)c3c2)cc1` [Compound 80g] it was 200 to 500 nM.
For `CN(c1cnc2cnn(C)c2c1)[C@H]1CCc2c(C(=O)Nc3nn(C)c4ccccc34)cccc21` [Compound 80h], the IC50 is under 50 nM.
In the case of `CN(c1cnc2cnn(C)c2c1)[C@H]1CCc2c(C(=O)Nc3ccc4c(c3)OC(F)(F)O4)cccc21` [Compound 80i] it was 50 to 200 nM.
With `Cc1cccc(NC(=O)c2cccc3c2CC[C@@H]3N(C)c2cnc3cn(C)nc3c2)c1F` [Compound 80j], the IC50 is under 50 nM.
The figure for `COc1cccc(NC(=O)c2cccc3c2CC[C@@H]3N(C)c2cnc3cn(C)nc3c2)c1F` [Compound 80m] is under 50 nM; for `Cc1ccc(F)c(NC(=O)c2cccc3c2CC[C@@H]3N(C)c2cnc3cn(C)nc3c2)c1` [Compound 80n] it is under 50 nM; for `CN1CCc2nc(NC(=O)c3cccc4c3CC[C@@H]4N(C)c3cnc4cn(C)nc4c3)sc2C1` [Compound 80o] it is under 50 nM.
The figure for `COc1ccc(F)c(NC(=O)c2cccc3c2CC[C@@H]3N(C)c2cnc3cn(C)nc3c2)c1` [Compound 80p] is under 50 nM; for `Cc1cc(NC(=O)c2cccc3c2CC[C@@H]3N(C)c2cnc3cnn(C)c3c2)ccc1F` [Compound 80q] it is under 50 nM.
Regarding `CN(c1cnc2cnn(C)c2c1)[C@H]1CCc2c(C(=O)Nc3ccc(F)c(Cl)c3)cccc21` [Compound 80r], the IC50 is under 50 nM.
The figure for `Cc1cc(NC(=O)c2cccc3c2CC[C@@H]3N(C)c2cnc3cn(C)nc3c2)ccc1F` [Compound 80s] is under 50 nM; for `CN(c1cnc2cn(C)nc2c1)[C@H]1CCc2c(C(=O)Nc3ccc(F)c(Cl)c3)cccc21` [Compound 80t] it is under 50 nM; for `CN(c1cnc2cn(C)nc2c1)[C@H]1CCc2c(C(=O)Nc3ccc4c(c3)OC(F)(F)O4)cccc21` [Compound 80u] it is under 50 nM.
In the case of `COc1cc(NC(=O)c2cccc3c2CC[C@@H]3N(C)c2cnc3cn(C)nc3c2)ccc1F` [Compound 80v] it was under 50 nM; in that of `CN1CCc2nc(NC(=O)c3cccc4c3CC[C@@H]4N(C)c3cnc4cnn(C)c4c3)sc2C1` [Compound 80w], 50 to 200 nM; in that of `COc1cccc(NC(=O)c2cccc3c2CC[C@@H]3N(C)c2cnc3cnn(C)c3c2)c1F` [Compound 80x], 50 to 200 nM.
For the molecule `Cc1ccc(F)c(NC(=O)c2cccc3c2CC[C@@H]3N(C)c2cnc3cnn(C)c3c2)c1` [Compound 80y], the IC50 is under 50 nM.
The figure for `Cn1cc2ncc(N[C@H]3CCc4c(NC(=O)c5cccc(C6CC6)c5)cccc43)cc2n1` [Compound 81, (S)-3-cyclopropyl-N-(1-((2-methyl-2H-pyrazolo[4,3-b]pyridin-6-yl)amino)-2,3-dihydro-1H-inden-4-yl)benzamide] is under 50 nM; for `Cc1cccc(C(=O)Nc2cccc3c2CC[C@@H]3Nc2cnc3cn(C)nc3c2)c1F` [Compound 82, (S)-2-fluoro-3-methyl-N-(1-((2-methyl-2H-pyrazolo[4,3-b]pyridin-6-yl)amino)-2,3-dihydro-1H-inden-4-yl)benzamide] it is under 50 nM; for `Cc1cccc(C(=O)Nc2ccc(F)c3c2CC[C@@H]3Nc2cnc3cn(C)nc3c2)c1F` [Compound 83, (S)-2-fluoro-N-(7-fluoro-1-((2-methyl-2H-pyrazolo[4,3-b]pyridin-6-yl)amino)-2,3-dihydro-1H-inden-4-yl)-3-methylbenzamide] it is under 50 nM.
The figure for `Cc1cccc(NC(=O)c2ccc(F)c3c2CC[C@@H]3Nc2cnc3cn(C)nc3c2)c1F` [Compound 84, (S)-7-fluoro-N-(2-fluoro-3-methylphenyl)-1-((2-methyl-2H-pyrazolo[4,3-b]pyridin-6-yl)amino)-2,3-dihydro-1H-indene-4-carboxamide] is under 50 nM; for `Cn1ncc2ncc(O[C@H]3CCc4c(C(=O)Nc5cccc(C6CC6)c5)ccc(F)c43)cc21` [Compound 85, (S)—N-(3-cyclopropylphenyl)-7-fluoro-1-((1-methyl-1H-pyrazolo[4,3-b]pyridin-6-yl)oxy)-2,3-dihydro-1H-indene-4-carboxamide] it is under 50 nM.
The figure for `Cn1ncc2ncc(N[C@H]3CCc4c(Nc5cc(C(C)(C)C(F)(F)F)on5)cccc43)nc21` [Compound 87, (S)—N′-(1-methyl-1H-pyrazolo[3,4-b]pyrazin-6-yl)-N^4-(5-(1,1,1-trifluoro-2-methylpropan-2-yl)isoxazol-3-yl)-2,3-dihydro-1H-indene-1,4-diamine] is under 50 nM.
As for `Cn1ncc2ncc(N[C@H]3CCc4c(C(=O)Nc5cccc(C6CC6)c5)cccc43)nc21` [Compound 88, (S)—N-(3-cyclopropylphenyl)-1-((1-methyl-1H-pyrazolo[3,4-b]pyrazin-6-yl)amino)-2,3-dihydro-1H-indene-4-carboxamide], the IC50 was under 50 nM.
In the case of `Cn1cc2ncc(N[C@H]3CCc4c(Nc5cc(C(C)(C)C)on5)cccc43)cc2n1` [Compound 90, (S)—N^4-(5-(tert-butyl)isoxazol-3-yl)-N^1-(2-methyl-2H-pyrazolo[4,3-b]pyridin-6-yl)-2,3-dihydro-1H-indene-1,4-diamine] it was under 50 nM; in that of `Cn1ncc2ncc(N[C@H]3CCc4c(Nc5cc(C(C)(C)C)on5)cccc43)cc21` [Compound 91a], under 50 nM.
The figure for `Cn1ncc2ncc(N[C@H]3CCc4c(Nc5nc(C(C)(C)C)cs5)cccc43)cc21` [Compound 91b] is 50 to 200 nM.
The figure for `COCC(C)(C)c1cc(Nc2cccc3c2CC[C@@H]3Nc2cnc3cnn(C)c3c2)no1` [Compound 91c] is under 50 nM.
Turning to `Cn1ncc2ncc(N[C@H]3CCc4c(Nc5cc(C(C)(C)CO)on5)cccc43)cc21` [Compound 91d], the IC50 was under 50 nM.
Take `CC(C)c1cc(Nc2cccc3c2CC[C@@H]3Nc2cnc3cnn(C)c3c2)no1` [Compound 91e]: the IC50 is under 50 nM.
In the case of `Cn1ncc2ncc(N[C@H]3CCc4c(Nc5ncc(C(C)(C)C)s5)cccc43)cc21` [Compound 91f] it was under 50 nM; in that of `Cn1ncc2ncc(N[C@H]3CCc4c(Nc5nc(C(C)(C)C)co5)cccc43)cc21` [Compound 91g], 50 to 200 nM; in that of `Cn1cc2ncc(N[C@H]3CCc4c(Nc5ncc(C(C)(C)C)s5)cccc43)cc2n1` [Compound 91h], under 50 nM.
With `Cn1cc2ncc(N[C@H]3CCc4c(Nc5nc(C(C)(C)C)cs5)cccc43)cc2n1` [Compound 91i], the IC50 was under 50 nM.
With `Cn1cc2ncc(N[C@H]3CCc4c(Nc5cc(C(C)(C)C(F)(F)F)on5)cccc43)cc2n1` [Compound 91j], the IC50 was under 50 nM.
In the case of `Cn1cc2ncc(N[C@H]3CCc4c(Nc5cc(C6(C)CCC6)on5)cccc43)cc2n1` [Compound 91k] it was under 50 nM; in that of `Cn1cc2ncc(N[C@H]3CCc4c(Nc5cc(C6(C)CCCC6)on5)cccc43)cc2n1` [Compound 91l], under 50 nM.
In the case of `Cn1cc2ncc(N[C@H]3CCc4c(Nc5cc(C6(C(F)(F)F)CC6)on5)cccc43)cc2n1` [Compound 91m] it was under 50 nM.
Consider `Cn1cc2ncc(N[C@H]3CCc4c(Nc5cc(C6(C(F)(F)F)CCC6)on5)cccc43)cc2n1` [Compound 91n], for which the IC50 is under 50 nM.
The figure for `Cn1cc2ncc(N[C@H]3CCc4c(Nc5cc(C6(C(F)(F)F)CCCC6)on5)cccc43)cc2n1` [Compound 91o] is under 50 nM; for `Cn1cc2ncc(N[C@H]3CCc4c(Nc5cc(C67CC(C6)C7)on5)cccc43)cc2n1` [Compound 91r] it is under 50 nM.
In the case of `Cn1cc2ncc(N[C@H]3CCc4c(Nc5cc(C67CC(F)(C6)C7)on5)cccc43)cc2n1` [Compound 91s] it was under 50 nM; in that of `Cn1cc2ncc(N[C@H]3CCc4c(Nc5noc(C6(C)COC6)n5)cccc43)cc2n1` [Compound 92, (S)—N^1-(2-methyl-2H-pyrazolo[4,3-b]pyridin-6-yl)-N^4-(5-(3-methyloxetan-3-7)-1,2,4-oxadiazol-3-yl)-2,3-dihydro-1H-indene-1,4-d], over 500 nM.
On to `Cn1ncc2ncc(N[C@H]3CCc4c(Nc5noc(C(C)(C)C)n5)cccc43)cc21` [Compound 93a], for which the IC50 is under 50 nM.
In the case of `CN1CCC[C@@H]1c1nc(Nc2cccc3c2CC[C@@H]3Nc2cnc3cn(C)nc3c2)no1` [Compound 93b] it was 50 to 200 nM.
